Reference: patent US12721832B2, “Anti-senescence plant polyphenol drug downregulating senescence-related secretory phenotype and use thereof” (BYHEALTH CO., LTD., priority 2021, dated 2026)

Assays:
Format in all cases: in vivo
[1] = system: senescent cells in tumor tissue; experiment: SA-β-Gal staining of tumor tissue in PC3/PSC27 tumor-bearing mice; conditions: PCC1 administered to MIT-treated animals
Description: Representative pictures after SA-β-Gal staining. Scale bar, 100 μm.
A P>0.05; **, P<0.01; ***, P<0.001.
In a preclinical treatment trial, subcutaneously transplanted mice were fed with a standard experimental diet, after 2 weeks chemotherapy drugs mitoxantrone (MIT, dose: 0.2 mg/kg) and/or procyanidin C1 (PCC1) (500 μl, dose: 10 mg/kg) via intraperitoneal administration. The time points were: the former was administrated on the first day of the 3rd, 5th and 7th weeks, and the latter was administrated on the first day of the 5th and 7th weeks. A total of 3 cycles of MIT administration were carried out throughout the course of treatment, and each cycle lasted for 2 weeks. After the course of treatment, mouse tumors were harvested for volume measurement and histological analysis. Each mouse cumulatively received 0.6 mg/kg body weight of MIT and 30 mg/kg body weight of PCC1. In order to cause systemic expression of SASP factor induced by chemotherapy, MIT was administered to mice through intravenous infusion according to the above steps and sequence, but the dose was reduced to 0.1 mg/kg body weight/each time (the cumulative dose of MIT received in the whole course of treatment was 0.3 mg/kg body weight) to reduce drug-related toxicity. […]

[2] = system: PC3/PSC27 xenograft tumors; experiment: PC3/PSC27 xenograft tumor terminal volume in NOD/SCID mice; conditions: end of 8th week
Excerpt: Every two weeks was a dosing cycle, and MIT (mitoxantrone) was intraperitoneally administered to the mice on the first day of the 3rd/5th/7th weeks. From the first day of the 5th week, the mice were intraperitoneally administrated with PCC1, once a week. After the 8-week course of treatment, the mice were dissected for pathological identification and expression analysis.
Chemotherapeutic drug MIT alone or together with anti-senescence drug PCC1 was used to administer mice, and after the 8th week, the tumor size of each group was compared and analyzed.
All experimental mouse experiments were carried out in strict accordance with the relevant regulations of the Institutional Animal Care and Use Committee (IACUC), Shanghai Institutes for Biological Sciences, Chinese Academy of Sciences. Immunodeficient mice (NOD-SCID mice, ICR) (body weight about 25 g) aged 6-8 weeks were used for animal experiments related to the present patent. Stromal cells PSC27 and epithelial cells PC3 were mixed at a predetermined ratio of 1:4, and each graft contained 1.25×10^6 cells for tissue remodeling. The xenograft tumors were implanted into mice by subcutaneous transplantation, and the animals were euthanized 8 weeks after the end of the transplantation surgery. Tumor volume was calculated according to the following formula: V=(π/6)×[…] (V, volume; l, length; w, width).
In a preclinical treatment trial, subcutaneously transplanted mice were fed with a standard experimental diet, after 2 weeks chemotherapy drugs mitoxantrone (MIT, dose: 0.2 mg/kg) and/or procyanidin C1 (PCC1) (500 μl, dose: 10 mg/kg) via intraperitoneal administration. The time points were: the former was administrated on the first day of the 3rd, 5th and 7th weeks, and the latter was administrated on the first day of the 5th and 7th weeks. A total of 3 cycles of MIT administration were carried out throughout the course of treatment, and each cycle lasted for 2 weeks. After the course of treatment, mouse tumors were harvested for volume measurement and histological analysis. Each mouse cumulatively received 0.6 mg/kg body weight of MIT and […] body weight of PCC1. In order to cause systemic expression of SASP factor induced by chemotherapy, MIT was administered to mice through […] according to the above steps and sequence, but the dose was reduced to 0.1 mg/kg body weight/each time (the cumulative dose of MIT received in the whole course of treatment was 0.3 mg/kg body weight) to reduce drug-related toxicity. The chemotherapy experiment ended at the end of the 8th week, and the mice were dissected immediately after sacrifice, and the xenograft tumors were collected and used for pathological system analysis.

[3] = system: aged C57BL/6 mice; experiment: Physical ability test in aged mice; conditions: males and females, PCC1 biweekly
Description: N=5. ^, P>0.05; **, P<0.01.
N=5/group. , P>0.05; ***, P<0.001.
All testing began on day 5 after the last placebo or drug treatment. Maximum walking speed was assessed using the accelerated RotaRod System (TSE System, Chesterfiled, Mo.). The mice were trained on the RotaRod for 3 days at speeds of 4, 6 and 8 r.p.m, lasted for 200 seconds on the 1st, 2nd and 3rd days. On the test day, the mice were placed on the RotaRod, and the test was performed starting at a speed of 4 r.p.m. The rotation speed was accelerated from 4 to 40 r.p.m at intervals of 5 minutes. When the mice fell off the RotaRod, the speed was recorded. The final results were averaged from 3 or 4 trials and normalized to baseline speed. […]
Forelimb grip strength (N) was measured using a Grip Strength Meter (Columbus Instruments, Columbus, Ohio), and the results were averaged from more than 10 trials. […] The mice were only allowed to grasp the wire with their forelimbs, and the hang time was normalized to body weight and expressed as hang duration (sec) x body weight (g). […] Their daily activity and food intake were monitored for 24 h (12 hours of light and 12 hours of dark) by a Comprehensive Laboratory Animal Monitoring System (CLAMS). […] The distance was recorded after the test, and the total work (KJ) was calculated with the following formula: mass (kg)×g (9.8 m/s^2)×distance (m)×sin) (5°).

[4] = PCC1 administered to mice treated with MIT

How did the “senescent cells within lesions of chemotherapeutic (MIT) animals” value [1] turn out when `Oc1cc(O)c2c(c1)O[C@H](c1ccc(O)c(O)c1)[C@H](O)[C@H]2c1c(O)cc(O)c2c1O[C@H](c1ccc(O)c(O)c1)[C@H](O)[C@H]2c1c(O)cc(O)c2c1O[C@H](c1ccc(O)c(O)c1)[C@H](O)C2` [PCC1, procyanidin C1] was run?
The value was “substantially depleted most senescent cells”.

What about the “reduction in tumor volume compared with MIT” value [2, 4] of the same molecule?
The value was 55.2%.

And the “reduction in tumor volume compared with placebo treatment” value [2, 4]?
Its value is 74.9%.

And the “reduction in tumor size compared to placebo” value ([2]; single agent, i.p.)?
The value was “did not cause tumor shrinkage”.

What about the “physical function during the last 2 months of life vs vehicle” value [3] of the same molecule?
Its value is “did not show a significant decrease”.
